This is an account of results in ChEMBL document CHEMBL5375983, “Discovery of YSR734: A Covalent HDAC Inhibitor with Cellular Activity in Acute Myeloid Leukemia and Duchenne Muscular Dystrophy” (J Med Chem, 2023).

Data set [1] concerns the target T1, Histone deacetylase 2 (Homo sapiens, UniProt Q92769). The data set is described as follows: Inhibition of HDAC2 (unknown origin) using 6-carboxyfluorescein peptide as substrate preincubated with compound for 2 hrs followed by substrate addition by electrophoretic mobility shift assay. Background: Mobility shift assays separate free from complexed probe on a gel.

Data set [2] deals with Histone deacetylase 4 (Homo sapiens, UniProt P56524). The data set is described as follows: Inhibition of HDAC4 (unknown origin) using 6-carboxyfluorescein peptide as substrate preincubated with compound for 6 hrs followed by substrate addition by electrophoretic mobility shift assay.
Histone deacetylase 4, sequence (P56524 whole entry): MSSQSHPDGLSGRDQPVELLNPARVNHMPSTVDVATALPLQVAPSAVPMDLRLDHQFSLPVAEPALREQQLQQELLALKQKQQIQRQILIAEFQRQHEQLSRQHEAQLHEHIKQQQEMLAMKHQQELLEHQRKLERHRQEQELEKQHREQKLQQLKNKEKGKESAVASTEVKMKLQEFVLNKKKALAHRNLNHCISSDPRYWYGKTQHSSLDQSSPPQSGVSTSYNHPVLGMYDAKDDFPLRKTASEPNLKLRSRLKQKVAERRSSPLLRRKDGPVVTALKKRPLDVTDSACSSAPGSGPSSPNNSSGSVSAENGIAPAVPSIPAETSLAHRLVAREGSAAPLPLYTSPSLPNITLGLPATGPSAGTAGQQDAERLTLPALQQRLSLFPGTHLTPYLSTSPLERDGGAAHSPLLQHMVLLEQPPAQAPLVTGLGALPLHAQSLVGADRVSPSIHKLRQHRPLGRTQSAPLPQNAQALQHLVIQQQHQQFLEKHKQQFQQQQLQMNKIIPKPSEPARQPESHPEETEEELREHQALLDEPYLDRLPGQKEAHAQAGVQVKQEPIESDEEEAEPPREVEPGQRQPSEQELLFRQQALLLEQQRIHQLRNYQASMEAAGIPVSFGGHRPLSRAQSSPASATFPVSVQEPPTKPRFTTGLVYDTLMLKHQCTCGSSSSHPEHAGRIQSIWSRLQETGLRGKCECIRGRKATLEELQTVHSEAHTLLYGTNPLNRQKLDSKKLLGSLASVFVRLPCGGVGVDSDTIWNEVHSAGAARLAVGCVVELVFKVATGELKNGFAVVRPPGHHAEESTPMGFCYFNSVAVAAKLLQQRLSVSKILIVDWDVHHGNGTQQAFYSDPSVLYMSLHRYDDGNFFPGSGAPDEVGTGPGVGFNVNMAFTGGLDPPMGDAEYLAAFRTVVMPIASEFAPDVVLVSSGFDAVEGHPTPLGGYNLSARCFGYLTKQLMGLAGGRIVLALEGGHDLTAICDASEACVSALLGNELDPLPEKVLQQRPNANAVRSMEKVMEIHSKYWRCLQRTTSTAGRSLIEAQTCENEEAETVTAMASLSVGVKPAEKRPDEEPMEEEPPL
The target in data set [3] is Histone deacetylase 2 (Mus musculus) (UniProt P70288). The data set is described as follows: Inhibition of HDAC2 in mouse C2C12 cells at 5 uM incubated for 72 hrs by immunofluorescence analysis. Type of data set: cell-based.
Histone deacetylase 2 (Mus musculus), sequence (P70288 whole entry): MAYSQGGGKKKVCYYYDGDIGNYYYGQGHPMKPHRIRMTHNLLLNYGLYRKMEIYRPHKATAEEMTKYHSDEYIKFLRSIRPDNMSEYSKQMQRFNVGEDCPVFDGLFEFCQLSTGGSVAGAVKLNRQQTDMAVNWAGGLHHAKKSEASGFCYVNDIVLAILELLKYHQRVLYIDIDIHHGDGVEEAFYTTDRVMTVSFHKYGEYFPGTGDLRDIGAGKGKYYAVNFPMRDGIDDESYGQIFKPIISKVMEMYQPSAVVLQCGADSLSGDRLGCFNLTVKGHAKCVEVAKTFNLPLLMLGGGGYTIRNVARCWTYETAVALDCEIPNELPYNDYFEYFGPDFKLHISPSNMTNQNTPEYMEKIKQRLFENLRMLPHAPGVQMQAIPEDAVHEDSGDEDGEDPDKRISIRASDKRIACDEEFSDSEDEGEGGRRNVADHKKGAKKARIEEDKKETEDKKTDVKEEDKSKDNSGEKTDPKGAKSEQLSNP
In data set [4] the target is T2, Histone deacetylase 7 (Homo sapiens, UniProt Q8WUI4).
T2 sequence (Q8WUI4 whole entry): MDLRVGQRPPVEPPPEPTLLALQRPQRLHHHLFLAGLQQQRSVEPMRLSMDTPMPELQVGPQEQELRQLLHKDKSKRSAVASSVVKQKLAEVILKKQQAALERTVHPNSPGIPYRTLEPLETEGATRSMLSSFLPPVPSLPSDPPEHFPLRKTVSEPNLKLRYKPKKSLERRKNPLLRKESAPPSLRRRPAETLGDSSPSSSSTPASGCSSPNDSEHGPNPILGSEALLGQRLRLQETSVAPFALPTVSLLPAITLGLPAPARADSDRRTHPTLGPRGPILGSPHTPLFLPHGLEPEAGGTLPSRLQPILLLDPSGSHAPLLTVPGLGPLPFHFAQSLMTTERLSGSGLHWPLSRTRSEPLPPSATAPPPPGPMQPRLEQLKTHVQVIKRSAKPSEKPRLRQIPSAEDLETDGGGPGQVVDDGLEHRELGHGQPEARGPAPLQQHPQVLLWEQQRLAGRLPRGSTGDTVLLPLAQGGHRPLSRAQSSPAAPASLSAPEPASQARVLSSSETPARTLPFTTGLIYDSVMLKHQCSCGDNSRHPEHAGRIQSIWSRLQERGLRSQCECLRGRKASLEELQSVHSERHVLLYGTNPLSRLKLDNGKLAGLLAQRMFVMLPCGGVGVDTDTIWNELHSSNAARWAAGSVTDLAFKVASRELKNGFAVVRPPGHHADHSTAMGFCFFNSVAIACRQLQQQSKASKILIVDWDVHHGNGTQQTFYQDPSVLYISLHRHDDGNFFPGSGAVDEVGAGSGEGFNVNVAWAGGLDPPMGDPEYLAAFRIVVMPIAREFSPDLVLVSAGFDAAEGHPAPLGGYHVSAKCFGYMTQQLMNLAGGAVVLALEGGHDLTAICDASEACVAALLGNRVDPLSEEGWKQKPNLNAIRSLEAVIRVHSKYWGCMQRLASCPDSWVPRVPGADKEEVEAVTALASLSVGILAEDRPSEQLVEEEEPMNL
Kind of data set: Inhibition of HDAC7 (unknown origin) using 6-carboxyfluorescein peptide as substrate preincubated with compound for 6 hrs followed by substrate addition by electrophoretic mobility shift assay.

In data set [5] the target is T3, Histone deacetylase 11 (Homo sapiens, UniProt Q96DB2).
T3 sequence (Q96DB2 whole entry): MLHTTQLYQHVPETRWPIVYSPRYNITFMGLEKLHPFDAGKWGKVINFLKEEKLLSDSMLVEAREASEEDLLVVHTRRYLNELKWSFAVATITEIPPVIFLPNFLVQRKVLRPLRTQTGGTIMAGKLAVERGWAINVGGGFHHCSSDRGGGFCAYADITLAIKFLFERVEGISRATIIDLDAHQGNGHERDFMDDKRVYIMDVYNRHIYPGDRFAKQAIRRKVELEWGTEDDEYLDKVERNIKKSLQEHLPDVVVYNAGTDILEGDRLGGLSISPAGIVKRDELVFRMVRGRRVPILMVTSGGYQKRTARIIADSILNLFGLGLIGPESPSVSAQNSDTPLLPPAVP
Kind of data set: Inhibition of full length recombinant human HDAC11 expressed in Sf9 cells using 6-carboxyfluorescein peptide as substrate preincubated with compound for 6 hrs followed by substrate addition and measured after 17 hrs by electrophoretic mobility shift assay.

A short description of data set [6]: Glutathione reactivity assessed as compound consumption at 500 nM measured after 1 to 3 hrs by LC-MS/MS analysis. To be noted: glutathione solution, time 1-3 hrs, read-out: Activity. Type of data set: ADME.
In data set [7] the test system is MV4-11. The data set is described as follows: Induction of apoptosis in human MV4-11 cells assessed as late apoptotic cells at 1 uM measured after 6 hrs by annexin V-FITC/PI staining based FACS assay (reference value: 16.21%). Type of data set: functional. (In general: A flow cytometer gives signals particle by particle.)
Data set [8] has as its target T1, Histone deacetylase 2. Kind of data set: Inhibition of HDAC2 (unknown origin) using 6-carboxyfluorescein peptide as substrate preincubated with compound followed by substrate addition by electrophoretic mobility shift assay.
In data set [9] the target is Histone deacetylase 3 (Homo sapiens, UniProt O15379). The data set is described as follows: Inhibition of full length recombinant human HDAC3 expressed in Sf9 cells using 6-carboxyfluorescein peptide as substrate preincubated with compound for 6 hrs followed by substrate addition and measured after 3 hrs by electrophoretic mobility shift assay. Type of data set: cell-based.
Histone deacetylase 3, sequence (O15379 whole entry): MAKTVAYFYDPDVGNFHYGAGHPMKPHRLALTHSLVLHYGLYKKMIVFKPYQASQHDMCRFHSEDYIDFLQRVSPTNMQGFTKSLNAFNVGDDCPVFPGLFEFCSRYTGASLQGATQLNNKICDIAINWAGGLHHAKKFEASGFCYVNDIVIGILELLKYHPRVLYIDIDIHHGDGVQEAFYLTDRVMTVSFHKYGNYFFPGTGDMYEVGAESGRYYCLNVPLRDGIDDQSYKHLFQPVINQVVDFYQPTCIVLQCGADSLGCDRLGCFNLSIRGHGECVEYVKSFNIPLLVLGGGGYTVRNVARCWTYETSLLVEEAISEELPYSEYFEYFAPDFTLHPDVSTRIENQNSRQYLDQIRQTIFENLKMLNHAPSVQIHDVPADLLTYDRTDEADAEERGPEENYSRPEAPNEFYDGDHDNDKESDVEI

Data set [10] deals with T1, Histone deacetylase 2. The data set is described as follows: Binding affinity to recombinant full length HDAC2 catalytic domain Cys274 (unknown origin) assessed as formation of single covalent adduct at 50 uM incubated for 2 hrs by trypsin-digest protein mapping analysis.

The structures appear in SMILES notation. Activity calls are given as the source filed them. The rule behind the calls is not given here.

T1 sequence (Q92769 whole entry): as the sequence (P70288 whole entry) above, with A289V, P477T, A480T counted along it

`Nc1ccccc1NC(=O)c1ccc(CNC(=O)OC2CCN(S(=O)(=O)c3c(F)c(F)c(F)c(F)c3F)CC2)cc1`: the IC50 – broadly, the concentration needed to halve the response being measured – is 0.327 µM in data set [1]; > 10 µM in [2]; > 10 µM in data set [4]; > 2 µM in data set [5]; 0.808 µM in [8]; 0.143 µM in data set [9]. For the same compound, in data set [3], the inhibition entry is “Active”. In addition, the degraded at 0.5 µM in data set [6] was > 50%. In addition, the Activity in [7] stood at 48.31%. In [10], the outcome was Active.
